ChEMBL document CHEMBL1201862, “PubChem BioAssay data set” (2004)
Activity calls are given as the source filed them. Rule as the data show it, for most assays here: actives have a measured EC50 and inactives only a lower limit.

How the values were obtained:
Cytochrome P450 2D6 = Cytochrome P450 2D6 (Homo sapiens, UniProt P10635);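 also: CYP2D6 member of a cytochrome P450 panel assay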
[1] = test system: Streptococcus sp. 'group A'; experiment: Streptococcus pyogenes SK(-)GAS viability under kanamycin – luminescence, BacTiterGlo, confirmation, counter-screen for streptokinase expression inhibitor project, dose response (AID 1900); assay type: functional, organism-based
Streptococcus = experiment: GAS UMAA2166 growth inhibition – luminescence, BacTiterGlo, counter-screen for streptokinase expression inhibitor project, dose response (AID 1915); assay type: functional, organism-based;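 also: potency for reduction of bacterial viability or growth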
Cytochrome P450 3A4 = Cytochrome P450 3A4 (Homo sapiens, UniProt P08684);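 also: CYP3A4 tested as one member of a cytochrome P450 panel screen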
Cytochrome P450 3A4, sequence (P08684 whole entry): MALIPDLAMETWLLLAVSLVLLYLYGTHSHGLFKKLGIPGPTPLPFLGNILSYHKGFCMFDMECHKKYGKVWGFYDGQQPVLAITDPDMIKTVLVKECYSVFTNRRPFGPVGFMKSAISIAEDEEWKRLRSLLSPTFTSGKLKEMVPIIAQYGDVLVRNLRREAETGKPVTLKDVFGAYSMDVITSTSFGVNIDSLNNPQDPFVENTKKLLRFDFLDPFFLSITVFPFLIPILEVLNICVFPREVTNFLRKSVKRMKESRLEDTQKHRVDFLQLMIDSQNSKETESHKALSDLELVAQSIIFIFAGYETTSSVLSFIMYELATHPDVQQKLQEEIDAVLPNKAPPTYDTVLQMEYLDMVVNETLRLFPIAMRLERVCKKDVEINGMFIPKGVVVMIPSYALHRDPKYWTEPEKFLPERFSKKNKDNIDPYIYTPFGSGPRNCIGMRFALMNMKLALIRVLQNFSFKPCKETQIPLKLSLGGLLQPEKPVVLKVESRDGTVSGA

Cytochrome P450 2C9 = Cytochrome P450 2C9 (Homo sapiens, UniProt P11712)
Cytochrome P450 2C9, sequence (P11712 whole entry): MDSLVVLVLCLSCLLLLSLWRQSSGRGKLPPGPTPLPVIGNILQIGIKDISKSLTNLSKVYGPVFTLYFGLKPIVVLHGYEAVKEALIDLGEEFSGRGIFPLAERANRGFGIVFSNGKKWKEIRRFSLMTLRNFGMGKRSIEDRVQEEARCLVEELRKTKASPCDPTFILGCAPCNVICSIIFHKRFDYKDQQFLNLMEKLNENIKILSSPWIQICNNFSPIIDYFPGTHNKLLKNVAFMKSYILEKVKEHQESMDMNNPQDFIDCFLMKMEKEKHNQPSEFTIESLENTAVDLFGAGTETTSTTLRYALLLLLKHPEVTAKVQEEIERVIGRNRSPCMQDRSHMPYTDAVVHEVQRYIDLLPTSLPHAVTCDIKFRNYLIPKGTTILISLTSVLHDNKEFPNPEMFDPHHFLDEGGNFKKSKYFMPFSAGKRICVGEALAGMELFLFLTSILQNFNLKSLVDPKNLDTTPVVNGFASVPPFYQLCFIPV

[2] = Trypanosoma cruzi growth suppression in host cells – NIH3T3 host cells, beta-gal luminescence, confirmation (AID 2044); assay type: functional, cell-based;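 also: intracellular parasites grown in NIH/3T3 mouse fibroblasts as host cells; luminescent beta-galactosidase reporter signal from transgenic T. cruzi replicating inside host cells; inhibitors lower the luminescence signal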
[3] = NIH3T3 cell viability loss – ATP luminescence, mouse fibroblasts, counter-screen, dose response (AID 2010); assay type: functional, cell-based;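 also: cells exposed to compound for about 90 hours before reading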
Streptokinase A = target: T1, Streptokinase A (Streptococcus pyogenes serotype M1, UniProt P10520); experiment: viability-normalized secreted streptokinase activity reduction – plasminogen activation absorbance, OD405, dose response (AID 1914); assay type: functional, Streptococcus pyogenes M1 GAS;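 also: secreted streptokinase activity via plasminogen activation per viability signal from cell pellet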
T1 sequence (P10520 whole entry): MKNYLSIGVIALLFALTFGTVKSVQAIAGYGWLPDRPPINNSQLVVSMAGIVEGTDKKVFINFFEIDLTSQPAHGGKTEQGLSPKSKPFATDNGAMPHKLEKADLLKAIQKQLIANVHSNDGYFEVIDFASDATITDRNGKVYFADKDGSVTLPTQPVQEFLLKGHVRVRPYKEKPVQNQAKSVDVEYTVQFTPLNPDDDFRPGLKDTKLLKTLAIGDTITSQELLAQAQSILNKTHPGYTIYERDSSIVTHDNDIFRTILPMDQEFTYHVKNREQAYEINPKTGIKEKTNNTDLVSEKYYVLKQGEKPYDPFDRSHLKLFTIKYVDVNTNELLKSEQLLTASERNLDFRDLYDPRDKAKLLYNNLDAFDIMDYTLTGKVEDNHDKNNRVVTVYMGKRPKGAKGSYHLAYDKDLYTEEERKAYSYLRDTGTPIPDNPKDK

Cytochrome P450 2D6, sequence (P10635 whole entry): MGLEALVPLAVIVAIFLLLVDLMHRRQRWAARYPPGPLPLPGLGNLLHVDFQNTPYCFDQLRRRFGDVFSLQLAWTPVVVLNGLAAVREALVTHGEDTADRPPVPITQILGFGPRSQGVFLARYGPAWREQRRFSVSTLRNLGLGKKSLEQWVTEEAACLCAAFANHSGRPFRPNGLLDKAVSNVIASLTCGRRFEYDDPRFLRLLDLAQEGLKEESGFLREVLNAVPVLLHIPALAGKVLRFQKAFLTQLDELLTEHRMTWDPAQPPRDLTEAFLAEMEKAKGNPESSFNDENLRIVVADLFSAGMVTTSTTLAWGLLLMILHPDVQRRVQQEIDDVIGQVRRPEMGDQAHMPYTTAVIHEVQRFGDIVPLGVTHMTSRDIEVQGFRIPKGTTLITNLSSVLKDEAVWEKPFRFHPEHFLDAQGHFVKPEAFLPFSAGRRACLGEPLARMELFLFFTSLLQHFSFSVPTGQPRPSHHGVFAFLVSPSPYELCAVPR

With `COc1cc(C=O)ccc1OCCOCCOc1ccccc1Cl` the AC50 (Cytochrome P450 2D6) was 20 µM (inconclusive).
In the case of `COC(=O)c1cc(-c2ccc(Br)cc2)c2c(=O)[nH]c(=O)n(C)c2n1`, the EC50 [1] was 2.45 µM (active) and the EC50 (Streptococcus) was 5.63 µM (active).
With `CCCOc1ccc(C(=O)NC(=S)N2CCN(c3cc4c(cc3F)c(=O)c(C(=O)O)cn4CC)CC2)cc1` the EC50 [1] was 4.62 µM (active) and the EC50 (Streptococcus) was 6.47 µM (active).
With `Oc1ccnc2cccc(Cc3ccccc3)c12` the AC50 (Cytochrome P450 2D6) was 0.00708 µM (inconclusive), the AC50 (Cytochrome P450 3A4) was 28.2 µM (inconclusive) and the AC50 (Cytochrome P450 2C9) was 15.8 µM (inconclusive).
With `CC1CCC(C(C)C)C(OC(=O)C[n+]2cc(-c3ccc(Cl)cc3)n3c2CCC3)C1` (stereo not drawn) the EC50 [2] was 0.144 µM (active) and the EC50 [3] was > 60 µM (not active).
For `CN(C)c1ncc2nc(-c3ccccc3)c(=O)n(C[C@H]3CCCO3)c2n1`, the AC50 (Cytochrome P450 2D6) was 12.6 µM (inconclusive), the AC50 (Cytochrome P450 3A4) was 12.6 µM (inconclusive) and the AC50 (Cytochrome P450 2C9) was 20 µM (inconclusive).
With `COc1ccc(C(=O)/C=C2/c3ccccc3CC(C)(C)N2C)cc1` the AC50 (Cytochrome P450 2C9) was 20 µM (inconclusive).
With `COc1ncc2nc(C)c(=O)n(CCc3ccccc3)c2n1` the AC50 (Cytochrome P450 3A4) was 15.8 µM (inconclusive) and the AC50 (Cytochrome P450 2C9) was 20 µM (inconclusive).
With `Cc1ccc(S(=O)(=O)N[C@H]2COC(=O)[C@@H](C)COC(=O)[C@H](C)NC(=O)C/C=C\[C@H]2C)cc1` the AC50 (Cytochrome P450 3A4) was 3.98 µM (inconclusive).
For `CCOc1ccc(-n2c(C)cc(/C=N/N(C)C)c2C)cc1`, the EC50 [2] was 0.843 µM (active) and the EC50 [3] was > 30 µM (not active).
For `CS(=O)(=O)N1CCC2(CC1)CN(C(=O)Nc1cccc(C#N)c1)C2`, the AC50 (Cytochrome P450 3A4) was 0.0251 µM (inconclusive).
With `C/C(=N/NS(=O)(=O)c1ccc(C)cc1)c1cccc(NC(=O)c2cccc(Cl)c2)c1` the AC50 (Cytochrome P450 2D6) was 4.47 µM (inconclusive).
In the case of `CCCCCCOC(=O)/C=C/c1c(C)nc(O)nc1O`, the EC50 [1] was 0.604 µM (active), the EC50 (Streptokinase A) was > 150 µM (not active) and the EC50 (Streptococcus) was 4.6 µM (active).
In the case of `COc1ccc(C(=O)N2CCC3(CCN(Cc4ccccc4OC)CC3)CC2)cc1`, the AC50 (Cytochrome P450 2D6) was 12.6 µM (inconclusive).
With `O=S(=O)(N/N=C\C=C\c1ccccc1)c1ccc(Br)cc1` the AC50 (Cytochrome P450 2D6) was 22.4 µM (inconclusive).
In the case of `Cc1ccc2ncc([N+](=O)[O-])n2c1`, the AC50 (Cytochrome P450 2C9) was 0.708 µM (inconclusive).
With `COC(=O)c1sc(N/N=C/c2ccc(C(C)C)cc2)nc1C` the EC50 [2] was 2.06 µM (active) and the EC50 [3] was > 60 µM (not active).
With `O=C(CC(=O)c1ccncc1)c1ccccc1` the AC50 (Cytochrome P450 2D6) was 1.58 µM (inconclusive) and the AC50 (Cytochrome P450 2C9) was 2 µM (inconclusive).
In the case of `O=C(Nc1cccc(F)c1)N1CC2(CCNCC2)C1`, the AC50 (Cytochrome P450 2D6) was 7.94 µM (inconclusive).
For `COc1cc(F)ccc1CN1CCC(n2nccc2NC(=O)C2CCOC2)CC1` (stereo not drawn), the EC50 [1] was > 150 µM (not active), the EC50 (Streptokinase A) was > 150 µM (not active) and the EC50 (Streptococcus) was > 150 µM (not active).
In the case of `CN1c2ccc([N+](=O)[O-])cc2CC2(C(=O)NC(=O)N(c3ccccc3)C2=O)C1c1ccccc1` (stereo not drawn), the EC50 [2] was 1.94 µM (active) and the EC50 [3] was > 60 µM (not active).
With `Cc1ccc(S(=O)(=O)NCc2ccccc2)cc1` the AC50 (Cytochrome P450 3A4) was 31.6 µM (inconclusive).
With `O=C1C(O)=C(C(C2=C(O)C(=O)c3ccccc3C2=O)c2ccc(Cl)cc2)C(=O)c2ccccc21` the AC50 (Cytochrome P450 2D6) was 2.51 µM (inconclusive), the AC50 (Cytochrome P450 3A4) was 3.16 µM (inconclusive) and the AC50 (Cytochrome P450 2C9) was 3.16 µM (inconclusive).
In the case of `Cc1cccc(C)c1NC(=O)C(NC=O)c1ccccc1Cl` (stereo not drawn), the AC50 (Cytochrome P450 2C9) was 12.6 µM (inconclusive).
For `COc1ccc(-c2nc(NC(C)=O)sc2-c2ccc(OC)cc2)cc1`, the EC50 [1] was 6.7 µM (active), the EC50 (Streptokinase A) was 3.44 µM (active) and the EC50 (Streptococcus) was 14.6 µM (active).
With `O=c1cnc2cnc(N3CCOCC3)nc2n1Cc1ccc(F)cc1` the AC50 (Cytochrome P450 3A4) was 12.6 µM (inconclusive) and the AC50 (Cytochrome P450 2C9) was 25.1 µM (inconclusive).
In the case of `COc1ccccc1CNc1ccc2c(c1)CCC2`, the EC50 [2] was 2.21 µM (active) and the EC50 [3] was > 60 µM (not active).
In the case of `COc1ccccc1N1CC(C(=O)Nc2nnc(SCC(=O)NCC3CCCO3)s2)CC1=O` (stereo not drawn), the EC50 [1] was > 150 µM (not active), the EC50 (Streptokinase A) was > 150 µM (not active) and the EC50 (Streptococcus) was > 150 µM (not active).
For `COc1cccc(Nc2ncc3ncc(=O)n(C4CC4)c3n2)c1`, the AC50 (Cytochrome P450 3A4) was 6.31 µM (inconclusive) and the AC50 (Cytochrome P450 2C9) was 15.8 µM (inconclusive).
For `CCCCCCCNC(=O)C1(CC2CC(c3cccc(Br)c3)=NO2)CCN(C(=O)c2ccccc2)CC1` (stereo not drawn), the EC50 [2] was 2.62 µM (active) and the EC50 [3] was > 60 µM (not active).
With `CCOC(=O)n1c(=O)n(Cc2c(Cl)cccc2Cl)c2ccccc21` the AC50 (Cytochrome P450 3A4) was 15.8 µM (inconclusive).
In the case of `CN(C)c1ccc(C2SCCN2C(=O)c2ccc([N+](=O)[O-])cc2)cc1` (stereo not drawn), the EC50 [2] was 0.874 µM (active) and the EC50 [3] was > 30 µM (not active).
With `CC(C)CN1CCC2(CC1)CCN(C(=O)Oc1ccccc1)CC2` the AC50 (Cytochrome P450 2D6) was 20 µM (inconclusive).
In the case of `NC(=O)C1(NC(=O)[C@@H]2CC3(CC(c4cccc(NC(=O)c5cc([N+](=O)[O-])cc([N+](=O)[O-])c5)c4)=NO3)CN2C(=O)c2ccccc2)CC1` (stereo partly drawn), the AC50 (Cytochrome P450 2C9) was 11.2 µM (inconclusive).
For `CCc1ccc(-c2cc(C)no2)cc1S(=O)(=O)Nc1cccc(CN2CCCC2)c1`, the EC50 [1] was > 150 µM (not active), the EC50 (Streptokinase A) was > 150 µM (not active) and the EC50 (Streptococcus) was > 150 µM (not active).
With `Cc1ccc(CSCC(=O)N2CCN(c3ccc(F)cc3)CC2)cc1` the EC50 [2] was 2.18 µM (active) and the EC50 [3] was > 60 µM (not active).
In the case of `CC(C)c1csc(CN2CCC(CO)(Cc3ccccc3)CC2)n1`, the EC50 [2] was 0.891 µM (active) and the EC50 [3] was > 60 µM (not active).
With `O=C1C=C(NC(=O)Nc2ccc(Cl)c(Cl)c2)CCC1` the EC50 [1] was 18 µM (active), the EC50 (Streptokinase A) was > 150 µM (not active) and the EC50 (Streptococcus) was > 150 µM (not active).
For `O=c1c([N+](=O)[O-])cc(C(F)(F)F)cn1Cc1c(Cl)cccc1Cl`, the AC50 (Cytochrome P450 2D6) was 25.1 µM (inconclusive) and the AC50 (Cytochrome P450 2C9) was 22.4 µM (inconclusive).
With `CCn1cc([N+](=O)[O-])c(C(=O)N2N=C(c3ccc4ccccc4c3)CC2c2cc(Br)ccc2O)n1` (stereo not drawn) the EC50 [2] was 2.19 µM (active) and the EC50 [3] was > 60 µM (inconclusive).
With `COc1ccc2cc3cc(C(=O)NCCN4CCN(c5ccccc5F)CC4)oc3nc2c1` the AC50 (Cytochrome P450 2D6) was 31.6 µM (inconclusive) and the AC50 (Cytochrome P450 2C9) was 22.4 µM (inconclusive).
In the case of `Cc1sc(NC(=O)Cc2ccc3c(c2)OCO3)nc1-c1ccc2c(c1)CCN2C(=O)c1ccccc1F`, the EC50 [2] was 1.69 µM (active) and the EC50 [3] was > 60 µM (not active).
With `CCCCNC(=O)c1ccc(NC(C)=O)c(Cl)c1` the EC50 [1] was > 150 µM (not active), the EC50 (Streptokinase A) was > 150 µM (not active) and the EC50 (Streptococcus) was > 150 µM (not active).
With `COc1cnc(-c2ccccc2)nc1Oc1cccc(C)c1` the AC50 (Cytochrome P450 2C9) was 39.8 µM (inconclusive).
With `O=C(c1ccco1)N1CCC[C@@]2(CCN(Cc3ccncc3)C2)C1` the AC50 (Cytochrome P450 3A4) was 15.8 µM (inconclusive).
For `COc1ccccc1CN1CCC2(CC1)CCN(C(=O)c1csnn1)CC2`, the AC50 (Cytochrome P450 3A4) was 31.6 µM (inconclusive).
With `COc1cc(C)ccc1OCCCOc1ccccc1Br` the EC50 [1] was > 150 µM (not active), the EC50 (Streptokinase A) was > 150 µM (not active) and the EC50 (Streptococcus) was > 150 µM (not active). The AC50 (Cytochrome P450 2C9) was 39.8 µM (inconclusive).
For `Cc1ccc(/C(=N\O)c2oc3c(C)c4oc(=O)cc(C)c4cc3c2C)cc1`, the EC50 [2] was 1.23 µM (active) and the EC50 [3] was > 60 µM (not active).
With `C/C(=N\NC(=O)COc1ccc(C)cc1C(C)C)c1cc2ccccc2o1` the EC50 [1] was 15.5 µM (active), the EC50 (Streptokinase A) was 30.5 µM (active) and the EC50 (Streptococcus) was 24.1 µM (active).
In the case of `COc1cc(OC)nc(Oc2ccccc2C(=O)Oc2cccc(C)c2)n1`, the AC50 (Cytochrome P450 3A4) was 17.8 µM (inconclusive).
With `CCOC(=O)c1sc2ncnc(N3CCN(c4ccc(OC)cc4)CC3)c2c1C` the EC50 [1] was 7.62 µM (active), the EC50 (Streptokinase A) was > 150 µM (not active) and the EC50 (Streptococcus) was > 150 µM (not active).
With `c1ccc(N2CC[C@@]3(CCCNC3)C2)nc1` the AC50 (Cytochrome P450 3A4) was 15.8 µM (inconclusive).
For `CNc1cc(-c2ccccc2C)ncn1`, the AC50 (Cytochrome P450 2D6) was 39.8 µM (inconclusive).
With `COc1ccc(C(=O)NC(=S)Nc2ccc(N3CCOCC3)c(Cl)c2)cc1[N+](=O)[O-]` the EC50 [1] was 1.73 µM (active), the EC50 (Streptokinase A) was > 150 µM (not active) and the EC50 (Streptococcus) was 19.3 µM (active).
In the case of `COc1ccc(-n2c(S)nnc2-c2cnccn2)cc1`, the AC50 (Cytochrome P450 3A4) was 14.1 µM (inconclusive).
For `O=C(CCCCn1c(=O)c2ccccc2n(CC(=O)NC2CCCC2)c1=O)NC1CCCC1`, the AC50 (Cytochrome P450 2D6) was 14.1 µM (inconclusive).
With `Cc1ccc(Sc2ccc(CN3CCCC3)cc2[N+](=O)[O-])cc1` the EC50 [2] was 0.206 µM (active) and the EC50 [3] was > 60 µM (not active).
With `COc1ccc([C@@H](Nc2ncccn2)c2cc3c(cc2O)OCO3)cc1` the AC50 (Cytochrome P450 2D6) was 6.31 µM (inconclusive).
